Publication PMC4506051, “Pharmacokinetic Profiles of Active Ingredients and Its Metabolites Derived from Rikkunshito, a Ghrelin Enhancer, in Healthy Japanese Volunteers: A Cross-Over, Randomized Study” (PLoS ONE, 2015)

Legend:
clinical = conditions: human, in vivo, po, Median t max (range)
Text: The first trial was a nonrandomized, open-label, one-period design. The second trial was a randomized, open-label, three-arm, three-period design (Fig 1). With respect to inclusion criteria, the studies included healthy Japanese adults between 20 and 45 years of age with a body mass index between 18 and 25 who were willing and able to comply with the study requirements. Exclusion criteria for this study included a history of significant liver, heart, or vessel disease and consumption of supplements that contained any rikkunshito ingredients or any drug within 3 days to 1 week before the first dose. Other standard exclusion criteria included relevant allergies, pregnant or nursing females, and any alcohol or nicotine use. The sample size was set as more than 15 based on the Ministry of Health, Labour and Welfare’s guidelines. Subjects allocated to a screening test were randomized to one of three groups by the central allocation system (allocation ratio 1:1:1). A random sequence was generated using a computer. The safety endpoint was evaluated in all volunteers. This endpoint was defined on the basis of a physician’s judgement after examination or observation that a serious adverse event had occurred. Adverse events included death, a life-threatening event, an event requiring hospitalization for treatment or an extended stay in hospital, an event resulting in permanent or temporary disability or dysfunction, an event resulting in a congenital abnormality, or any other serious medical phenomenon. With respect to side effects, no specific conditions were defined, and all adverse events for which no causal relationship with the drug could be excluded were deemed to be side effects. In each stage during the 48-h period following rikkunshito administration, the physician monitored the patient for subjective symptoms, objective findings, swelling, body temperature (axillary), blood pressure (sitting), and pulse (sitting). The physician also conducted a hematological examination to measure the patient’s red blood cell, leucocyte and platelet counts, hemoglobin level, and hematocrit value. A biochemical examination was conducted to determine total protein, blood urea nitrogen, creatinine, uric acid, aspartate aminotransferase, alanine aminotransferase, total bilirubin, alkaline phosphatase, γ-glutamyltranspeptidase albumin, prothrombin time, total cholesterol, C-reactive protein, and potassium to identify any abnormalities in comparison with the subject’s condition prior to administration. All participants fasted for 12 h before administration and 4 h after administration of the study drug.
In the second quantitative trial, 12-mL blood samples were collected at 0 (preadministration), 0.25, 0.5, 1, 2, 3, 4, 6, 8, 10, 12, 24, and 48 h after a single oral administration of rikkunshito (Lot H05142). A total of 3 daily doses were used in this trial, i.e., the clinical dose per administration (2.5 g) as the lowest dose, the clinical daily dose (7.5 g) as the highest dose, and an intermediate dose (5.0 g), to broadly discuss the pharmacokinetic characteristics of the ingredients measured. The trial participants were hospitalized overnight on the day they ingested rikkunshito, and returned home the following day after blood samples were collected at the 24-h time point. The participants returned to the hospital to provide blood samples at 48 h. The blood was immediately centrifuged at 1700 ×g for 15 min to obtain plasma. Plasma fractions were stored at −20°C or lower until analysis.
Plasma, urine, and rikkunshito formulation samples were analyzed for rikkunshito ingredients concentrations using a liquid chromatography–mass spectrometry with tandem mass spectrometer assay (LC–MS/MS; API5000, Triple Quad 6500, or QTRAP5500; AB Sciex, Tokyo, Japan) or gas chromatography–mass spectrometry. Further information of analytical methods can be found at S1 Appendix.

[1] = Method validation: stability in blood; conditions: 4 pg/mL
[2] = Method validation: long-term stability in plasma; conditions: 160 pg/mL
[3] = Method validation: freeze-thaw stability in plasma; conditions: 160 pg/mL, deep freezer (−30°C to −10°C), after 3 cycles of freeze-thaw
[4] = Method validation: post-preparative stability (autosampler)
[5] = Method validation: stability in standard, stock and working solution; conditions: 0.1 mg/mL
[6] = Exploratory trial: plasma concentration of rikkunshito ingredients after single oral rikkunshito 7.5 g; format: in vivo; conditions: mean ± S.D., n = 4; for Plasma concentration, 0 h: 0 h (preadministration), single oral rikkunshito 7.5 g; for Plasma concentration, 0.5 h: 0.5 h after single oral rikkunshito 7.5 g; for Plasma concentration, 1 h: 1 h after single oral rikkunshito 7.5 g; for Plasma concentration, 2 h: 2 h after single oral rikkunshito 7.5 g; for Plasma concentration, 4 h: 4 h after single oral rikkunshito 7.5 g; for Plasma concentration, 8 h: 8 h after single oral rikkunshito 7.5 g
Protocol: A random sequence was generated using a computer. The safety endpoint was evaluated in all volunteers.
(§1) In the first exploratory trial, 20-mL blood samples were collected from the cutaneous vein in the subjects’ forearm via a blood sampling tube that contained heparin at 0 (preadministration), 0.5, 1, 2, 4, and 8 h after a single oral administration of rikkunshito (Lot E24652). The dose of rikkunshito used in this trial was 7.5 g/day, which is the clinical daily dose, to widely explore rikkunshito-derived ingredients that enter the blood. Along with plasma, urine samples were collected at three points: between dinner and bedtime (preadministration), between 0 and 4 h after administration, and between 4 and 8 h after administration. The blood was immediately centrifuged at 1700 ×g for 10 min to obtain plasma. Plasma and urine fractions were stored at −80°C or lower until analysis.
(§2) For quantification of synephrine, 5 µL of standard solution or methanol was added to 100 µL plasma or urine samples followed by mixing. Ten microliters of erythromycin [internal standard (IS)] solution was added to the solutions followed by mixing and centrifugation (20,400 ×g, 5 min, 4°C). The supernatants were loaded onto an Ostro 96-well plate (Waters) and centrifuged (1500 ×g, 3 min, 4°C) followed by injection into the LC–MS/MS.
(§3) For quantification of 30 ingredients other than atractylodin and synephrine, 25 µL of standard solution or methanol was added to 500 µL plasma or urine samples followed by mixing. Atractylenolide III or digoxin (IS) solution (50 μL) was added to the solutions followed by mixing. For urine, 400 µL of blank plasma was added to the solutions. Ammonium acetate solution (100 mM, 100 or 400 µL) was added to the solutions followed by mixing. For enzymatic treatment, plasma and urine samples were incubated with β-glucuronidase (100 units in 100 mM ammonium acetate) for 2 h at 37°C. A solid-phase cartridge (OASIS HLB, 30 mg/1cc, Waters) was conditioned with methanol and 10 mM ammonium acetate solution, and the samples were loaded onto the cartridge. The cartridge was washed water : methanol (9:1, v/v), and 1.5 mL of methanol and 30 µL of propylene glycol were added to the cartridge to elute the analytes. The mixtures were dried at 25°C under a stream of nitrogen gas. Furthermore, 100 μL of 10 mM ammonium acetate : methanol (8:2, v/v) was added to the dried samples followed by mixing and sonication. The solutions were filtered (0.22 µm) and followed by injection into the LC–MS/MS system. […] Those analytical conditions are summarized in S2 Table and S3 Table.

[7] = Exploratory trial: amount of rikkunshito ingredients in urine; format: in vivo, human
Protocol: as §1, §2, §3

[8] = Stability of ingredients in gastric pH solution (pH 1.2, 37°C); format: physicochemical; conditions: pH 1.2
Protocol: Rikkunshito gradually dissolved in acidic solution (pH 1.2) at 37°C, and the concentration of atractylodin after adding 0.25, 0.5, 1, and 2 h was measured by gas chromatography–mass spectrometry.

[9] = of the ingredient in the formulation; summary table, reference not given; cited from earlier work
[10] = Formation of ingredients derived from rikkunshito in formulation, blood, and urine (S11 Table summary); conditions: after rikkunshito administration, per ingredient in the formulation; for Formation of ingredients: form found in Urine: BQL = below the quantification limit

Structure (SMILES) | Plasma concentration, 0 h [6] | Plasma concentration, 0.5 h [6] | Plasma concentration, 1 h [6] | Plasma concentration, 2 h [6] | Plasma concentration, 4 h [6] | Plasma concentration, 8 h [6] | Amount in urine, Pre ([7]; human, in vivo) | Amount in urine, 4–8 h ([7]; human, in vivo, po) | Stability in gastric pH solution, Quantitative value ([8]; 0.5 h) | Stability in gastric pH solution, Quantitative value ([8]; 1 h) | Stability in gastric pH solution, Quantitative value ([8]; 2 h) | Metabolite by enterobacterium [9] | Formation of ingredients: form found in Blood [10] | Formation of ingredients: form found in Urine [10] | further results
O=C1C[C@@H](c2ccc(O)cc2)Oc2cc(O)ccc21 [Liquiritigenin] |  |  |  |  |  |  |  |  |  |  |  |  |  |  | Tmax (clinical): > 3 h; Stability in blood, RR ([1]; at room temperature for 2 h): 82.0%; Stability in blood, RR ([1]; on ice for 2 h): 91.6%; Long-term stability, RR ([2]; freezer (−30°C to −10°C) for 22 days): 92.5%; Long-term stability, RR ([2]; freezer (−30°C to −10°C) for 31 days): 87.4%; Long-term stability, RR ([2]; freezer (−30°C to −10°C) for 220 days): 87.9%; Freeze-thaw stability, RR [3]: 92.5%; Post-preparative stability, RR ([4]; 4 pg/mL, autosampler set at 4°C for 25 h): 89.2%; Post-preparative stability, RR ([4]; 4 pg/mL, autosampler set at 4°C for 48 h): 94.1%; Post-preparative stability, RR ([4]; 160 pg/mL, autosampler set at 4°C for 25 h): 99.3%; Post-preparative stability, RR ([4]; 160 pg/mL, autosampler set at 4°C for 48 h): 103.4%; Stock solution stability, RR ([5]; refrigerator (1°C to 8°C) for 54 days): 54 days: 99.6%; Stock solution stability, RR ([5]; refrigerator (1°C to 8°C) for 129 days): 129 days: 103.5%
O=C1C[C@@H](c2ccc(O[C@@H]3O[C@H](CO)[C@@H](O)[C@H](O)[C@H]3O)cc2)Oc2cc(O)ccc21 [Liquiritin] | BQL | 1020 ± 131 pg/mL | 841 ± 94.3 pg/mL | 403 ± 91.3 pg/mL | 114 ± 39.2 pg/mL | BQL | 15.7 ± 19.0 ng | 1900 ± 945 ng | 1670 ng/mL | 1830 ng/mL | 1720 ng/mL | Liquiritigenin^b | Liquiritin Liquiritigenin^c | Liquiritin Liquiritigenin^c | 
C[C@@H]1O[C@@H](O[C@H]2[C@H](Oc3cc(O)c4c(c3)O[C@H](c3ccc(O)cc3)CC4=O)O[C@H](CO)[C@@H](O)[C@@H]2O)[C@H](O)[C@H](O)[C@H]1O [Naringin] | BQL | BQL | 59.0 ± 68.4 pg/mL | BQL | BQL | BQL | 70.7 ± 69.2 ng | 598 ± 329 ng | 959 ng/mL | 1060 ng/mL | 986 ng/mL | Naringenin (portion) | Naringin Naringenin Conjugate metabolites of naringenin^a | Naringin Naringenin | Amount in urine, 0–4 h ([7]; human, in vivo, po): 1030 ± 313 ng
C[C@@H]1O[C@@H](OC[C@H]2O[C@@H](Oc3cc(O)c4c(c3)O[C@H](c3ccc(O)cc3)CC4=O)[C@H](O)[C@@H](O)[C@@H]2O)[C@H](O)[C@H](O)[C@H]1O [Narirutin] |  |  |  |  |  |  |  |  | 1630 ng/mL | 1700 ng/mL | 1690 ng/mL | Naringenin | Naringenin Conjugate metabolites of naringenin^a | Naringenin | Amount in urine, 0–4 h ([7]; 0–4 h after single oral rikkunshito 7.5 g, mean ± S.D., n = 4): BQL; Amount in urine, 4–8 h ([7]; 4–8 h after single oral rikkunshito 7.5 g, mean ± S.D., n = 4): BQL; Amount in urine, Pre ([7]; preadministration (between dinner and bedtime), mean ± S.D., n = 4): 9.26 ± 18.5 ng
O=C(/C=C/c1ccc(O[C@@H]2O[C@H](CO)[C@@H](O)[C@H](O)[C@H]2O)cc1)c1ccc(O)cc1O [isoliquiritin] |  |  |  |  |  |  |  |  |  |  |  | Isoliquiritigenin | Isoliquiritigenin Conjugate metabolites of isoliquiritigenin | Isoliquiritigenin Conjugate metabolites of isoliquiritigenin | 
